Test results reported in patent publication US9981950B2, “Triazoles as NR2B receptor inhibitors” (Janssen Pharmaceuticals, Inc., priority 2014, dated 2018).

Key:
rat NR1/NR2B receptor [1] = molecular target: T1, rat NR1/NR2B receptor (Rattus norvegicus (Rat), UniProt P35439+Q00960); experiment: NR2B binding assay: inhibition of specific [3H]-Ifenprodil binding to the rat NR1/NR2B receptor; conditions: rat brain membranes, Hill-plot 2-parameter-model
Protocol: Inhibition of Specific Binding to the Rat NR1/NR2B Receptor
(§1) Male Wistar rats (180 to 200 g) were killed by suffocation in a CO2 chamber for two minutes. Whole brains without cerebellum were removed and dissected on ice, placed into closed vials and stored at −70° C.
Membrane fractions were prepared and tested using standard techniques. At the time of the assay, 1 g of the brains was placed into 25 ml of 50 mM Tris/10 mM EDTA buffer, pH 7.1, (25 vol. per g of original tissue) and homogenized for 30 sec at 20000 rpm with an Ultraturrax T25 (Jahnke & Kunkel, IKA-Labortechnik, Staufen, Germany). The homogenate was centrifuged at 4° C. for 10 min at 48000 g (OPTIMA L-70, Beckman, Palo Alto, Calif. 94304, USA).
The supernatant was discarded and the pellet was homogenized on ice for 30 sec at 20000 rpm with an Ultraturrax and again centrifuged at 48000 g for 30 minutes at 4° C. The resulted pellet was resuspended in 25 ml of 50 mM Tris/10 mM EDTA buffer, homogenized for 30 sec with an Ultraturrax, aliquoted, frozen at −70° C. and stored until use.
(§2) After thawing on the day of the assay, a 5 ml membrane aliquot was centrifuged at 48000 g for 30 min at 4° C. The pellet was resuspended in 5 ml of 5 mM Tris/1 mM EDTA buffer, pH 7.4, homogenized for 30 sec at 20000 rpm with an Ultraturrax and centrifuged at 48000 g for 30 min at 4° C. This was repeated twice. The final pellet was homogenized in 5 ml of 5 mM Tris/l mM EDTA buffer at 4° C. with an Ultraturrax and used for the Ifenprodil-binding assay as described in the following.
Nonspecific binding was estimated in the presence of […] CP101.606. The samples were incubated for 60 min. at 4° C.
The incubation was terminated by filtration of the membrane preparations using Filtermat B (Pharmacia, Uppsala Sweden) and a Micro Cell Harvester (Skatron, Lier, Norway). The Filtermat B had been presoaked with 1% polyethylene imine and carefully washed with 50 mM Tris/HCl-buffer pH 7.7 after the filtration to separate free and bound radioactivity.
The optimal amount of membrane preparation in the assay had been determined and optimized for each membrane preparation separately before the test.
For pipetting of the incubation mixture we routinely used the robot Biomek2000 (Fa. Beckman).
For determination of IC50 values the Hill-plot, 2-parameter-model was used.

hERG-receptor = hERG-receptor (Homo sapiens (Human), UniProt Q12809); experiment: HERGBD: inhibition of specific 3H-Dofetilide binding to the hERG-receptor; conditions: HEK cell membranes with human ERG, Hill-plot 2-parameter-model
Protocol: Inhibition of Specific Binding to the hERG-Receptor (HERGBD)
A HEK cell line with stable transfected human ERG receptor was used for the assay. The cells were grown adherently and maintained in DULBECCOS' MEM medium with 10% FBS, 1% non-essential amino acids, 1% Penicillin/Streptomycin and 400 μg/ml G418 (Calbiochem).
For binding assays and membrane preparations the cell culture medium was removed, cells were washed with PBS. Crude membranes for radioligand binding experiments were prepared by scraping the cells off the dishes in ice cold 20 mM HEPES/0.1 mM KCl/pH 7.2. The cell suspension was homogenized on ice (Ultra turrax, 3×20 sec.) and the homogenate was spun for 10 min (1° C., 1000 g, OPTIMA, SW28, 2800 U/min). The supernatant was than centrifuged for 40 min at 100000 g (1° C., OPTIMA, SW28, 23000 U/min). The membrane pellet was resuspended in 20 mM HEPES/0.1 mM KCl/pH 7.2, frozen and stored at −80° C.
After thawing on the day of the assay, the membrane suspension was diluted further with 20 mM HEPES/0.1 mM KCl/pH 7.2.
The incubation mixture of 200 μl contained 1.5 nmol/l 3H-Dofetilide, optimized amount of membrane preparation, 20 mM HEPES/0.1 mM KCl/(pH 7.2) and inhibitor in 1% DMSO. Nonspecific binding was estimated in the presence of […] Dofetilide. The samples were incubated for 90 min. at RT.
Binding was terminated by filtration of the incubated membrane preparations using Filtermat B (Pharmacia, Uppsala Sweden) and a Micro Cell Harvester (Skatron, Lier, Norway). The Filtermat B had been presoaked with 1% polyethylenimine and carefully washed with 0.05 M Tris/HCl-buffer pH=7.7 after the filtration to separate free and bound radioactivity. The filters were counted in a scintillation counter (Betaplate 1205, Berthold, Wildbad, Germany) in order to determine the specific binding of [^3H]-Dofetilide.
The optimal amount of membrane preparation in the assay was determined and optimized for each membrane preparation separately in front of using the membranes in compound testing.
For pipetting of the incubation mixture we routinely use the robot Biomek2000 (Fa. Beckman).

rat NR1/NR2B receptor [2] = molecular target: T1, rat NR1/NR2B receptor; experiment: RRNR2BB: inhibition of specific binding to the rat NR1/NR2B receptor; conditions: [3H]-Ifenprodil binding, rat brain membranes, Hill-plot 2-parameter-model
Protocol: RRNR2BB—Inhibition of Specific Binding to the Rat NR1/NR2B Receptor
as §1
Membrane fractions were prepared and tested using standard techniques. At the time of the assay, 1 g of the brains were placed into 25 ml of 50 mM Tris/10 mM EDTA buffer, pH=7.1, (25 vol. per g of original tissue) and was homogenized for 30 sec at 20000 U/min with an Ultraturrax T25 (Jahnke & Kunkel, IKA-Labortechnik, Staufen, Germany). The homogenate was centrifuged at 4° C. for 10 min at 48000 g (OPTIMA L-70, Beckman, Palo Alto, Calif. 94304, USA). The supernatant was discarded and the pellet was homogenized on ice for 30 sec at 20000 U/min with an Ultraturrax and again centrifuged at 48000 g for 30 minutes at 4° C. The resultant pellet was resuspended in 25 ml of 50 mM Tris/10 mM EDTA buffer, homogenized for 30 sec with an Ultraturrax, aliquoted, frozen at −70° C. and stored until use
as §2, with “aliquote” for “aliquot”, “pH=7.4,” for “pH 7.4,”, “U/min” for “rpm”, “This step” for “This”, “Tris/mM” for “Tris/l mM”, “assay.” for “assay as described in the following.”
Nonspecific binding was estimated in the presence of 10 M CP101.606. The samples were incubated for 60 min. at 4° C.
Binding was terminated by filtration of the incubated membrane preparations using Filtermat B (Pharmacia, Uppsala Sweden) and a Micro Cell Harvester (Skatron, Lier, Norway). The Filtermat B had been presoaked with 1% polyethylenimine and carefully washed with […] Tris/HCl-buffer pH=7.7 after the filtration to separate free and bound radioactivity.
For pipetting of the incubation mixture the robot Biomek2000 (Fa. Beckman) was used.
The IC50 values in the tables below were determined using the Hill-plot, 2-parameter-model.

T1 sequence (Q00960 27-1482, other chains not shown): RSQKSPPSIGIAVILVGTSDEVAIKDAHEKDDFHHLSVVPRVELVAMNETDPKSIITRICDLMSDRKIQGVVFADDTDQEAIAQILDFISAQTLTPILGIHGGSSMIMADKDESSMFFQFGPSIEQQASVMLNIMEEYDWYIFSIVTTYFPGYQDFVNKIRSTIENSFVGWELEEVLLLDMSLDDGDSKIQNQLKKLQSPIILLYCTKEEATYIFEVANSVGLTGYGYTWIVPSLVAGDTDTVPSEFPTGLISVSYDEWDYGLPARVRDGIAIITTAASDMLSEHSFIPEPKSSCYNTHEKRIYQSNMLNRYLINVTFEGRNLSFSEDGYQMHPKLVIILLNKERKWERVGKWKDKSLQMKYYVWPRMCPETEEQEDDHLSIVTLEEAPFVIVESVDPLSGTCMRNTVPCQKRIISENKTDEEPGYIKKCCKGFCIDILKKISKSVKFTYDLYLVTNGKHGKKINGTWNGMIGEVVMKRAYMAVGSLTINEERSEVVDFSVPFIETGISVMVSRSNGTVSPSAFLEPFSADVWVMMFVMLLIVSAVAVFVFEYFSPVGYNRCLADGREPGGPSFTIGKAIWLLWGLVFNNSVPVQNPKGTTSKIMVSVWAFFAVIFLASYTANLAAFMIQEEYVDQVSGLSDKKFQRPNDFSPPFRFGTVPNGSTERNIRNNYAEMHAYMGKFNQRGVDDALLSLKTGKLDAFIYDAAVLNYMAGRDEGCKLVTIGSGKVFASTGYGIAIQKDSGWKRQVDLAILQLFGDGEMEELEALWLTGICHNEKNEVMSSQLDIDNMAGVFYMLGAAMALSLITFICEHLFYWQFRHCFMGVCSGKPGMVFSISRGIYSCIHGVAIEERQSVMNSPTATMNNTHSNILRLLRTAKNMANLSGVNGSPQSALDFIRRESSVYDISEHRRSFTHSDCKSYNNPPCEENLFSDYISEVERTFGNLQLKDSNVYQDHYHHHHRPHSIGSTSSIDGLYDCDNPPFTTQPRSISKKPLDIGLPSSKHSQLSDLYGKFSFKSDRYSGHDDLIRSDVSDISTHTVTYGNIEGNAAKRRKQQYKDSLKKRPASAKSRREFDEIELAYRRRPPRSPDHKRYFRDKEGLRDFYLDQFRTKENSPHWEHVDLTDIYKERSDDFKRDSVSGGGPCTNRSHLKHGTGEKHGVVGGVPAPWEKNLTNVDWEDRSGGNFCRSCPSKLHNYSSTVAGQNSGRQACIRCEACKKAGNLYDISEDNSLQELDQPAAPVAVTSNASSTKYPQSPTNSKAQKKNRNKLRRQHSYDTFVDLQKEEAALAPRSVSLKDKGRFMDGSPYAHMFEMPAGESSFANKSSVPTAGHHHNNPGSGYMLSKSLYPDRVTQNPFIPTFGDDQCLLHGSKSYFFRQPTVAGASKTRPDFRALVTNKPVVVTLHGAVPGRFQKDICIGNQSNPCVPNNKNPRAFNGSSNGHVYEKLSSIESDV
Chain of hERG-receptor (Q12809 whole entry): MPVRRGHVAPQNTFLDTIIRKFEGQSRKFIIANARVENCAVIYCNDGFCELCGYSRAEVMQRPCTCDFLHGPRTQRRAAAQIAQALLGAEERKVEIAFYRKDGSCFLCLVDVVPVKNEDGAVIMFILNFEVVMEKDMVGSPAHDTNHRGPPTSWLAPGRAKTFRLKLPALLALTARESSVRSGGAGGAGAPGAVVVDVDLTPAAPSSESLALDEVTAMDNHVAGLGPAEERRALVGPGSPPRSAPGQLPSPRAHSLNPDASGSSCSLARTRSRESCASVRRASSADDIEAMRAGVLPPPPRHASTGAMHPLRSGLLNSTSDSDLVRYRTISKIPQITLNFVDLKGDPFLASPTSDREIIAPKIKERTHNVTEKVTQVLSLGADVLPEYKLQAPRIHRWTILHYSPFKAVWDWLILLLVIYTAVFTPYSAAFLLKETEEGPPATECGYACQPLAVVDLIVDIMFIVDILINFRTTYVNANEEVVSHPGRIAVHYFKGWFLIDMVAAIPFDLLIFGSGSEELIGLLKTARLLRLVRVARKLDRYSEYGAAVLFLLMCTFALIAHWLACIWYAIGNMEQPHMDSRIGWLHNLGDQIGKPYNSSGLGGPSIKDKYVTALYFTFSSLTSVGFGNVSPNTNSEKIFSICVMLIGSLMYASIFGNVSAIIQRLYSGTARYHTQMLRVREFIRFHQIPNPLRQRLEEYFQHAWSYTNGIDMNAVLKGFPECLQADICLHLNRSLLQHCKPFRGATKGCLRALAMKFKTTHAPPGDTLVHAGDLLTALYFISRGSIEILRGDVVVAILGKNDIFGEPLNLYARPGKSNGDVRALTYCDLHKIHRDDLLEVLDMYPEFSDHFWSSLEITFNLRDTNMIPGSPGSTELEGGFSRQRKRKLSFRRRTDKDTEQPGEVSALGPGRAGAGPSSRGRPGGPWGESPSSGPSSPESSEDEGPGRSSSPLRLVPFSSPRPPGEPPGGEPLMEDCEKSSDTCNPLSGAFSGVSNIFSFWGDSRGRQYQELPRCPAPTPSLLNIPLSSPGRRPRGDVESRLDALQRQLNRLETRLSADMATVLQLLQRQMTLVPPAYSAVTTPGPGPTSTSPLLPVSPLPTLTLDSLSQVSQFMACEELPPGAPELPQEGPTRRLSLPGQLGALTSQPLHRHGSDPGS

SMILES	IC50 (rat NR1/NR2B receptor [1]) [nM]	IC50 (rat NR1/NR2B receptor [2]) [nM]	IC50 (hERG-receptor) [µM]
CCCCc1nccn1Cc1cn(-c2ccc(Cl)cc2)nn1 [Example 27, 4-(2-Butyl-imidazol-1-ylmethyl)-1-(4-chloro-phenyl)-1H-[1,2,3]triazole]	38.9	38.9	0.57
CCCc1nccn1Cc1cn(-c2ccc(Cl)cc2)nn1 [Example 18, 1-(4-Chloro-phenyl)-4-(2-propyl-imidazol-1-ylmethyl)-1H-[1,2,3]triazole]	46.6	46.6	2.23
Cc1cc(-n2cc(Cn3ccnc3C(C)C)nn2)ccc1Cl [Example 71, 1-(4-Chloro-3-methyl-phenyl)-4-(2-isopropyl-imidazol-1-ylmethyl)-1H-[1,2,3]triazole]	4.47	4.47	10
Cc1ncnn1Cc1cn(-c2ccc(Cl)cc2)nn1 [Example 8, 1-(4-Chloro-phenyl)-4-(5-methyl-[1,2,4]triazol-1-ylmethyl)-1H-[1,2,3]triazole]	14300	14300	48.9
Cc1nccn1Cc1cn(-c2ccc(Cl)cc2)nn1 [Example 24, 1-(4-Chloro-phenyl)-4-(2-methyl-imidazol-1-ylmethyl)-1H-[1,2,3]triazole]	38.4	38.4	5.64
Cc1nccn1Cc1cn(-c2cc(F)cc(C(F)F)c2)nn1 [Example 102]	25.9	25.9	16.8
Cc1nccn1Cc1cn(-c2ccc(Cl)cc2Cl)nn1 [Example 49, 1-(2,4-Dichloro-phenyl)-4-(2-methyl-imidazol-1-ylmethyl)-1H-[1,2,3]triazole]	778	778	4.53
CC(C)c1nccn1Cc1cn(-c2ccc(Cl)c(C(F)F)c2)nn1 [Example 92, 1-(4-Chloro-3-difluoromethyl-phenyl)-4-(2-isopropyl-imidazol-1-ylmethyl)-1H-[1,2,3]triazole]	5.24	5.24	11.3
Cc1nc(C2CCC2)n(Cc2cn(-c3ccc(Cl)cc3)nn2)n1 [Example 21, 1-(4-Chloro-phenyl)-4-(5-cyclobutyl-3-methyl-[1,2,4]triazol-1-ylmethyl)-1H-[1,2,3]triazole]	–	> 10000	3.52
Cc1nc(C)n(Cc2cn(-c3ccc(Cl)cc3)nn2)n1 [Example 1, 1-(4-Chloro-phenyl)-4-(3,5-dimethyl-[1,2,4]triazol-1-ylmethyl)-1H-[1,2,3]triazole]	–	> 10000	419
Cc1nc(C)n(Cc2cn(-c3ccccc3)nn2)n1 [Example 46, 4-(3,5-Dimethyl-[1,2,4]triazol-1-ylmethyl)-1-phenyl-1H-[1,2,3]triazole]	–	> 10000	7.58

Second part, led by results:

IC50 (rat NR1/NR2B receptor [1]) [nM]	IC50 (rat NR1/NR2B receptor [2]) [nM]	SMILES	IC50 (hERG-receptor) [µM]
5.32	5.32	Cc1cc(-n2cc(Cn3ccnc3C)nn2)ccc1F [Example 54, 1-(4-Fluoro-3-methyl-phenyl)-4-(2-methyl-imidazol-1-ylmethyl)-1H-[1,2,3]triazole]	6.21
4.92	4.92	Cc1nccn1Cc1cn(-c2ccc(Cl)c(Cl)c2)nn1 [Example 32, 1-(3,4-Dichloro-phenyl)-4-(2-methyl-imidazol-1-ylmethyl)-1H-[1,2,3]triazole]	3.93
11.9	11.9	Cc1nccn1Cc1cn(-c2ccc(Cl)c(C(F)(F)F)c2)nn1 [Example 56, 1-(4-Chloro-3-trifluoromethyl-phenyl)-4-(2-methyl-imidazol-1-ylmethyl)-1H-[1,2,3]triazole]	6.46
7.21	7.21	Cc1nccn1Cc1cn(-c2cccc(OC(F)(F)F)c2)nn1 [Example 57, 4-(2-Methyl-imidazol-1-ylmethyl)-1-(3-trifluoromethoxy-phenyl)-1H-[1,2,3]triazole]	8.59
4.05	4.05	Cc1nccn1Cc1cn(-c2ccc(F)c(C(C)(F)F)c2)nn1 [Example 105, 1-[3-(1,1-Difluoro-ethyl)-4-fluoro-phenyl]-4-(2-methyl-imidazol-1-ylmethyl)-1H-[1,2,3]triazole]	73.1
1.64	1.64	Cc1cc(-n2cc(Cn3ccnc3C)nn2)ccc1Cl [Example 55, 1-(4-Chloro-3-methyl-phenyl)-4-(2-methyl-imidazol-1-ylmethyl)-1H-[1,2,3]triazole]	4.71
14.5	14.5	OCCc1nccn1Cc1cn(-c2ccc(F)c(C(F)F)c2)nn1 [Example 88, 1-(3-Difluoromethyl-4-fluoro-phenyl)-4-[2-(2-hydroxy-ethyl)-imidazol-1-ylmethyl]-1H-[1,2,3]triazole]	93.4
3.91	3.91	FC(F)Oc1cc(-n2cc(Cn3ccnc3C3CC3)nn2)ccc1Cl [Example 94, 1-(4-Chloro-3-difluoromethoxy-phenyl)-4-(2-cyclopropyl-imidazol-1-ylmethyl)-1H-[1,2,3]triazole]	3.02
8.08	8.08	CC(F)(F)c1cc(-n2cc(Cn3ccnc3CCO)nn2)ccc1F [Example 106, 1-[3-(1,1-Difluoro-ethyl)-4-fluoro-phenyl]-4-[2-(2-hydroxy-ethyl)-imidazol-1-ylmethyl]-1H-[1,2,3]triazole]	–
